Results on two compounds are retold here after paper PMC9549714 (iScience, 2022).

Test [1] addresses T1, PPAT (phosphoribosyl pyrophosphate amidotransferase) (Homo sapiens, UniProt Q06203). The test can be described thus: glutamate production from glutamine and PRPP, glutamate assay kit. The format is biochemical.
Test [2] concerns the target T1, PPAT (phosphoribosyl pyrophosphate amidotransferase). The test can be described thus: PPAT activity assay, presumably as above. The format is biochemical.

T1 sequence (Q06203 12-517): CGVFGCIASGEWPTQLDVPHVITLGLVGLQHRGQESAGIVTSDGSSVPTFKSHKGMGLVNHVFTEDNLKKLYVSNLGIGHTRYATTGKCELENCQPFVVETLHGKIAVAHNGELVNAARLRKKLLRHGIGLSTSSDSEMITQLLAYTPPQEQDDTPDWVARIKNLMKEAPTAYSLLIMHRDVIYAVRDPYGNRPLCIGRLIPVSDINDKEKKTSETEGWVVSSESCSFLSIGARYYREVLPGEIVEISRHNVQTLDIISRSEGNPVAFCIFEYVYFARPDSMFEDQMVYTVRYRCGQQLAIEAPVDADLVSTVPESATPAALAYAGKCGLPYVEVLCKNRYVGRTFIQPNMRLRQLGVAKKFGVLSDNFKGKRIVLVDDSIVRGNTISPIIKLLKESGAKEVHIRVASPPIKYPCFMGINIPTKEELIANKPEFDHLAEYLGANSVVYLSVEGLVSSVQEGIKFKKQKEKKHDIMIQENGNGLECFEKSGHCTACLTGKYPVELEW

Broadly, the IC50 is the concentration at which inhibition is half-maximal. Higher therefore signals weaker potency in that assay. As to `Cc1cc2nc3c(=O)[nH]c(=O)nc-3n(C[C@H](O)[C@H](O)[C@H](O)COP(=O)(O)O)c2cc1C` [ZINC8551105, riboflavin 5′-monophosphate], in test [1], the IC50 is 7.5 µM.

On to `Cc1cc2nc3c(=O)[nH]c(=O)nc-3n(C[C@H](O)[C@H](O)[C@H](O)CO)c2cc1C` [riboflavin], for which the IC50 in test [2] amounted to 49.9 µM.
